In assay [1] the test system is H4. Description: Luminescence Cell-Based Dose Response HTS to Identify Activators of 5'UTR Stem-Loop Driven Prion Protein mRNA Translation in H4 Neuroglioblastoma Cells. [Related pubchem assays: 1829 (Project Summary), 1814 (Primary HTS)]. Type of assay: functional. Particulars: Homo sapiens.
Assay [2] in a line: Luminescence Cell-Based Dose Confirmation HTS to Identify Activators of 5'UTR Stem-Loop Driven Alpha-Synuclein mRNA Translation in H4 Neuroglioblastoma Cells. [Related pubchem assays: 1829 (Project Summary), 1814 (Primary HTS)]. The format is functional.
A short description of assay [3]: Luminescence Cell-Based Dose Response HTS to Identify Activators of Luciferase Translation or Activity in H4 […] Cells. [Related pubchem assays: 1829 (Project Summary), 1814 (Primary HTS)]. Type of assay: functional.
Assay [4] has as its target Peroxisome proliferator-activated receptor gamma/Nuclear receptor coactivator 2 (Homo sapiens, UniProt P37231). Type of assay: functional.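 Also: agonist potency for raising coactivator recruitment to the receptor.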
Assay [5] can be described thus: HEp-2 cell cytotoxicity, dose response, cytotoxicity control for RSV inhibitor project, HTS (AID 2410). Type of assay: functional. Particulars: human respiratory syncytial virus.
Assay [6] concerns the target Peroxisome proliferator-activated receptor gamma/Nuclear receptor coactivator 3 (Homo sapiens, UniProt P37231). Type of assay: functional.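 Also: agonist potency for raising coactivator recruitment to the receptor.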
For assay [7], the target named is Peroxisome proliferator-activated receptor gamma/Nuclear receptor coactivator 1 (Homo sapiens, UniProt P37231). Type of assay: functional.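 Also: agonist potency as compounds enhance coactivator SRC-1 recruitment to PPARgamma.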
The nature of assay [8]: cytotoxicity toward NIH3T3 fibroblasts, dose response, counter-screen, cell-based, ATP luminescence, mouse fibroblasts (AID 2010).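 Also: cells exposed to compound for about 90 hours before reading.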 Type of assay: functional.
Assay [9] is described as follows: inhibitors of intracellular T. cruzi replication, confirmation, NIH3T3 host cells, beta-gal luminescence (AID 2044).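 Also: intracellular parasites grown in NIH/3T3 mouse fibroblasts as host cells; luminescent beta-galactosidase reporter signal from transgenic T. cruzi replicating inside host cells; inhibitors lower the luminescence signal.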 Type of assay: functional, cell-based.
Assay [10] deals with T1, Zinc finger protein mex-5 (Caenorhabditis elegans, UniProt Q9XUB2).
T1 sequence (Q9XUB2 whole entry): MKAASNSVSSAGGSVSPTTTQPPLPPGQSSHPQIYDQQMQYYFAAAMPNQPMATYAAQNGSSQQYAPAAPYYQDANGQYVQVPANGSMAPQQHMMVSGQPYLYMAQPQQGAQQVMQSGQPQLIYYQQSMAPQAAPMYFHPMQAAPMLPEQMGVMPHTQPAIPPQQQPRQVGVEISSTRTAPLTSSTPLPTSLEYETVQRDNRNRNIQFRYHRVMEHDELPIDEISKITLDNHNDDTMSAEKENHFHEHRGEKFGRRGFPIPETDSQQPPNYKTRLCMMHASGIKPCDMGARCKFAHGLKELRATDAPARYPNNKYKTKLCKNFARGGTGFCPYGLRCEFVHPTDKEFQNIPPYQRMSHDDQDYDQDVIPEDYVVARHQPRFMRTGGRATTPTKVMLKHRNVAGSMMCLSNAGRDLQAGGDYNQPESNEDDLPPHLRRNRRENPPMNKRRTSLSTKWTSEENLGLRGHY
Put plainly: MEX-5/TCR-2 RNA interaction inhibitors, dose response, biochemical, C. elegans, fluorescence polarization (AID 1960). (In general: Polarisation of emitted light reports the rotation of a fluorescent probe.)

The target in assay [11] is T2, RNA-binding protein pos-1 (Caenorhabditis elegans, UniProt G5EF15).
T2 sequence (G5EF15 whole entry): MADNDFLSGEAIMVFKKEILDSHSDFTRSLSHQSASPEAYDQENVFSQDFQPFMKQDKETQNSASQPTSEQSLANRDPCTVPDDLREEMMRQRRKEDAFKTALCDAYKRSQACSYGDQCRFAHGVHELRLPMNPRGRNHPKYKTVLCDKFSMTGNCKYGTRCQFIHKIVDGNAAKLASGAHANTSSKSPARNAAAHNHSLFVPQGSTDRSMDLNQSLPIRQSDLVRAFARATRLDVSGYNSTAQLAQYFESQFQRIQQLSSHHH
Description: inhibitors of POS-1/mex-3 RNA binding, dose response, biochemical, fluorescence polarization (AID 1964).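 Also: purified POS-1 fused to maltose binding protein made in E. coli; potency of compounds blocking POS-1 binding to fluorescent RNA.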

Assay [12] has as its target T3, Protein RecA (Mycobacterium tuberculosis, UniProt P9WHJ3).
T3 sequence (P9WHJ3 whole entry): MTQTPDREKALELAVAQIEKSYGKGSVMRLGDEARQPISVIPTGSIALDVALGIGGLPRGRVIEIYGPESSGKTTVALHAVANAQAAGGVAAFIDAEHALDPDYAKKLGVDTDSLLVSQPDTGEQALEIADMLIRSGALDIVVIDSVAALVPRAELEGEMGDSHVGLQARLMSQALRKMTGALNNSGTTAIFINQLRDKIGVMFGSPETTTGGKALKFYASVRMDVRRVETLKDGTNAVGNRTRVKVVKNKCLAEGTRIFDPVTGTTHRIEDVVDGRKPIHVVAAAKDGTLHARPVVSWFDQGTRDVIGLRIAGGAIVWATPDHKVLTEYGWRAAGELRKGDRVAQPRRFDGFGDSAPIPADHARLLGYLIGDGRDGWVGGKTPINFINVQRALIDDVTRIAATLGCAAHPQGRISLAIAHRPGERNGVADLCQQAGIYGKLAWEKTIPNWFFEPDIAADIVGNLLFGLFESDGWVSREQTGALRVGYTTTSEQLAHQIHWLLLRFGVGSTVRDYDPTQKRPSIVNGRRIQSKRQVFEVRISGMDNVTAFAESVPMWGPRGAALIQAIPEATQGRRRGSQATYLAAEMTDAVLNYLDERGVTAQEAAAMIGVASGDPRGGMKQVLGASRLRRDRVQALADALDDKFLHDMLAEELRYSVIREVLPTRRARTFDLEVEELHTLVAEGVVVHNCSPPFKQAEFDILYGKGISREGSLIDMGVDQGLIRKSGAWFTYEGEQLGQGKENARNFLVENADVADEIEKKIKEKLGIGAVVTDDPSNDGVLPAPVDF
Put plainly: Fluorescence Cell-Free Homogeneous Dose Retest to Identify Inhibitors of RecA-Intein Splicing Activity. [Related pubchem assays (depositor defined):AID2097, AID2223, AID489010, AID492950]. Type of assay: functional.

The target of assay [13] is T4, Replicative DNA helicase DnaB (Mycobacterium tuberculosis, UniProt P9WMR3).
T4 sequence (P9WMR3 whole entry): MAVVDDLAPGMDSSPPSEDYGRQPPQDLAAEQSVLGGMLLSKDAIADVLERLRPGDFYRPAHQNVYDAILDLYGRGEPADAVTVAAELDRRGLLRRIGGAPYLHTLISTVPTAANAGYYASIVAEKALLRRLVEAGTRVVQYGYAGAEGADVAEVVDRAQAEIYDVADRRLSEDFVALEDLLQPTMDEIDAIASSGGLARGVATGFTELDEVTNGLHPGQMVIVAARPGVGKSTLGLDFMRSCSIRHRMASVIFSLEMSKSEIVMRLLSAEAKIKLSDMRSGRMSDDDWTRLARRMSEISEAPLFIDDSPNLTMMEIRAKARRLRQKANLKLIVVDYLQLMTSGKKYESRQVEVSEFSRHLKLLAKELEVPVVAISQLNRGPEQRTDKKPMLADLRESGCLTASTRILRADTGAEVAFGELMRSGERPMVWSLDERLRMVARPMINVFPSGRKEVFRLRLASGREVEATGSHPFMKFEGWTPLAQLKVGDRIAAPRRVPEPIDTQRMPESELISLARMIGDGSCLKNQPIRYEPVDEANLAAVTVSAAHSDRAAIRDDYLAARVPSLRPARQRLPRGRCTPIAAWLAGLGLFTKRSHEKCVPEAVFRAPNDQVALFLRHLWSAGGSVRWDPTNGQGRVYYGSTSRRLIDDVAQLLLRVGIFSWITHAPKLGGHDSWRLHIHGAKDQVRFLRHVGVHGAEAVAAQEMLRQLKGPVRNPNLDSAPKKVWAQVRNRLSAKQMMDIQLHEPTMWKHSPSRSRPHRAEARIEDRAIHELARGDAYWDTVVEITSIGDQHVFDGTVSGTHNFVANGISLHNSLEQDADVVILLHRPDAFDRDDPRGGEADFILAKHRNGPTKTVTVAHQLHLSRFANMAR
Put plainly: DnaB intein splicing inhibitors, dose response, biochemical, cell-free fluorescence (AID 449749). The format is functional.

Each structure is given as a SMILES string. Active and inactive are the calls of the source. Rule as the data show it, for most assays here: actives have a measured EC50 and inactives only a lower limit.

Sequence of Peroxisome proliferator-activated receptor gamma/Nuclear receptor coactivator 2 (P37231 whole entry): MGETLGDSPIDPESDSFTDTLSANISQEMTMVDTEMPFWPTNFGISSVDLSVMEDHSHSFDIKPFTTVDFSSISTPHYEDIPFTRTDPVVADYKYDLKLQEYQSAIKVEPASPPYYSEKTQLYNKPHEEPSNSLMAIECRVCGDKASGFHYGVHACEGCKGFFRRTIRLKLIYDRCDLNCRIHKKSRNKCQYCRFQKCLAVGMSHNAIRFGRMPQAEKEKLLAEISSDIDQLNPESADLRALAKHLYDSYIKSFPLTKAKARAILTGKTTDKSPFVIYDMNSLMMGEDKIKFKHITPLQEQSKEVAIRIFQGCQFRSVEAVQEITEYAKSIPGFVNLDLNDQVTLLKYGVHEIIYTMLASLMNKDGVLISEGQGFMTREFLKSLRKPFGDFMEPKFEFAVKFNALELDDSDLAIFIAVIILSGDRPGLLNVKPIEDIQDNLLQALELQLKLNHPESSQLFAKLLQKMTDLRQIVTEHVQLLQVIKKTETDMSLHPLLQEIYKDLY
Sequence of Peroxisome proliferator-activated receptor gamma/Nuclear receptor coactivator 2 (Q15596 whole entry, further chain): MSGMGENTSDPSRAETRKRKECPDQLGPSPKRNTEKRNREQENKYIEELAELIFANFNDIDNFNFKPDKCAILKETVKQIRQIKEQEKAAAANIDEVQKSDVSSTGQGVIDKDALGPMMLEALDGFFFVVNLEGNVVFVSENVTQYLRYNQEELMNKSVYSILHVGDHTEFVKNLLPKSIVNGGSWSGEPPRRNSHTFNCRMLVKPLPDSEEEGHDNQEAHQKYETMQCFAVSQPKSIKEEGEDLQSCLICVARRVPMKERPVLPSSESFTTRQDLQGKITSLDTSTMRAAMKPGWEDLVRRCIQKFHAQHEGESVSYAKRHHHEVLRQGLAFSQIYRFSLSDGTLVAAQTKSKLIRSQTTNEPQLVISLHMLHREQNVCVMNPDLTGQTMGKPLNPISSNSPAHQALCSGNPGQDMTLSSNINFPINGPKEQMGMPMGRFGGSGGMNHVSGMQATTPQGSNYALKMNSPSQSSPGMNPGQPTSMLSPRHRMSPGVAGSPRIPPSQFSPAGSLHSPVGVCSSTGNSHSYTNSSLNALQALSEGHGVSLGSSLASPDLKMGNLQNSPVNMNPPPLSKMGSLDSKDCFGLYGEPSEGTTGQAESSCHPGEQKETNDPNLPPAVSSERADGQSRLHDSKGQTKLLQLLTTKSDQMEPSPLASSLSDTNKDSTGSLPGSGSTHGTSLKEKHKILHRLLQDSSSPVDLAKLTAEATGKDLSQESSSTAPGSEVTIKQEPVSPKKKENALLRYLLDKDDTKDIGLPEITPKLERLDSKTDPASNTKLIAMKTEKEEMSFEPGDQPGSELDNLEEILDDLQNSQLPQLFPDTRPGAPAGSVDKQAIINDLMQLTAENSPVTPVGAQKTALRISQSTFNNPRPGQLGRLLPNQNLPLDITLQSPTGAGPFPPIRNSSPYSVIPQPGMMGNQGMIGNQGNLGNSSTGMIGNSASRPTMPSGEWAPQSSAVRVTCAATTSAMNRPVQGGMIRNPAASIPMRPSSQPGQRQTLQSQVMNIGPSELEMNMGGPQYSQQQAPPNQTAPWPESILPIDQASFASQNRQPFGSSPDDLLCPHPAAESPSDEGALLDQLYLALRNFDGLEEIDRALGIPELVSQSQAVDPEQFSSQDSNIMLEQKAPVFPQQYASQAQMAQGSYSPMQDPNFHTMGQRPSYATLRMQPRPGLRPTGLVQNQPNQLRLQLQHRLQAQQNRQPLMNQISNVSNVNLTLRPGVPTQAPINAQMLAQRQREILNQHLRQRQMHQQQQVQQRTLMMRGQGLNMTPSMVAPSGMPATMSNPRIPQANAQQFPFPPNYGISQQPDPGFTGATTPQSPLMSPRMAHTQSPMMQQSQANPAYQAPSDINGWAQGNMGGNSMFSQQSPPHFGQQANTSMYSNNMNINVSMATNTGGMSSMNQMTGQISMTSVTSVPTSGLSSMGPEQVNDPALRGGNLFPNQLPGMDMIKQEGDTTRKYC
Sequence of Peroxisome proliferator-activated receptor gamma/Nuclear receptor coactivator 3 (P37231 whole entry): as the sequence (P37231 whole entry) above
Sequence of Peroxisome proliferator-activated receptor gamma/Nuclear receptor coactivator 3 (Q9Y6Q9 whole entry, further chain): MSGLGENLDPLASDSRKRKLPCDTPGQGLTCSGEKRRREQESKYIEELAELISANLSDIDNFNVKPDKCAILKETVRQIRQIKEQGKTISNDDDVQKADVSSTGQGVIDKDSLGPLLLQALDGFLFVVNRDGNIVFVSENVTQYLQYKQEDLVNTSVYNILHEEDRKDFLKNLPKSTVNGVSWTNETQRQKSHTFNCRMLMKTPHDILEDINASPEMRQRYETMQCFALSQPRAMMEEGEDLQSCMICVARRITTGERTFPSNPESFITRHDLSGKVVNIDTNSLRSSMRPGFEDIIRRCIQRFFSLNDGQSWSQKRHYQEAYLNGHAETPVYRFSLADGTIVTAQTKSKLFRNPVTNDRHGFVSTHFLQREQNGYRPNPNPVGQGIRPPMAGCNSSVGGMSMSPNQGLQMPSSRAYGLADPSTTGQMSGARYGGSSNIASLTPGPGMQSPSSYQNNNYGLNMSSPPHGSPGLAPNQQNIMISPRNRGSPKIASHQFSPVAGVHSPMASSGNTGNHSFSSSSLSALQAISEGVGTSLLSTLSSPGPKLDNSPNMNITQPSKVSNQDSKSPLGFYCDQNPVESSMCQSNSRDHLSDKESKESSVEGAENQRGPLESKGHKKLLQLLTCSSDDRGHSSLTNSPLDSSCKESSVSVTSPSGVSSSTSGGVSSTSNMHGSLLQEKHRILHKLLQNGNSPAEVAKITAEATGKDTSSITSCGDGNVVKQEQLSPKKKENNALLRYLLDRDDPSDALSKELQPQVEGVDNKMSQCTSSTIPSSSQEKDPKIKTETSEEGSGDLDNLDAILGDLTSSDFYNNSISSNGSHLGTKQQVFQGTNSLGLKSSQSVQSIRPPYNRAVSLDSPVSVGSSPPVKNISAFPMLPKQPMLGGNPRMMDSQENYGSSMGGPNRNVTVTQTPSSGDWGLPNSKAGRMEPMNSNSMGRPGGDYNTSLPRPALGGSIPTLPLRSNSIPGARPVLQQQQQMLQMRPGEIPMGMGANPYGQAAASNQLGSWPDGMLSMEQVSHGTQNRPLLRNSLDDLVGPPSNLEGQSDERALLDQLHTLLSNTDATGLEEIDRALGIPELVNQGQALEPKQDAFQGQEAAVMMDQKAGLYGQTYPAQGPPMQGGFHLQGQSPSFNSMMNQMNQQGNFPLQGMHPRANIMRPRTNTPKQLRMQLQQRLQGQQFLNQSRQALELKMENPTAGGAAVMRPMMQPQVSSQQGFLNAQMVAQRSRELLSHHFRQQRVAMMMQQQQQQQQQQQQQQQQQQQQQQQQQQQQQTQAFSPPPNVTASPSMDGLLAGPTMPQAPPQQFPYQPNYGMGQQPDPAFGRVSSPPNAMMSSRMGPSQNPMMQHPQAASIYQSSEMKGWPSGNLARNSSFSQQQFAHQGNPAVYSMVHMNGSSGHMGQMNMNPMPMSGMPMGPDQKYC

Usually EC50 stands for the concentration that produces a half-maximal response. Consider `c1ccc(SCc2nc(-c3ccncc3)no2)cc1`, for which the EC50 is 10.1 µM (active) in assay [1], 14.8 µM (active) in [2] and 25.8 µM (active) in [3].

For `N#Cc1c(NC(=O)C2CC2)sc2c1CCCCC2`, the figures for the EC50 in [1], in assay [2] and in assay [3] were > 120 µM (not active), 34.7 µM (active) and 81.4 µM (active), respectively.

What is called CC50 is the concentration at which the toxic effect on the cells reaches its halfway point. For `C#CCn1/c(=N/C(=O)c2ccc(Cl)s2)sc2cccc(OC)c21`, the 50% effective concentration (EC50) in [4] was 12.8 µM (not active); in [6], 21.5 µM (not active); in assay [7] it was 18.4 µM (not active). In addition, in [5], the CC50 was 19.1 µM (active).

For `CCN1CCc2c(sc(NC(=O)c3ccc4ccccc4c3)c2C(N)=O)C1`, the EC50 in assay [8] is 16.8 µM (active); in assay [9], 2.47 µM (active); in [10], > 300 µM (inconclusive); in assay [1] it was > 60 µM (not active); in assay [2] it was 36.5 µM (active); in assay [3] it was 7.69 µM (active). Also, the EC50 in assay [11] was 45.5 µM (active).

`CCCc1ccc2oc(C(=O)NCCCN3CCOCC3)c(C)c2c1`: the EC50 in assay [1] was 53.7 µM (active); in [2], 18.7 µM (active); in assay [3] it was 30.8 µM (active).

One may read the AC50 as the concentration at which the activity in the assay is half-maximal. Consider `CCCOc1cccc(-c2nc3ccccc3c(=O)o2)c1`, for which the figures for the EC50 in assay [12], in [2] and in assay [3] were 6.81 µM (active), 26.3 µM (active) and 16.3 µM (active), respectively. Also, in [13], the half-maximal activity concentration (AC50) was 9.46 µM (active).

As to `CC(C)(C)NC(=O)CSc1nc(O)cc(=O)n1-c1ccccc1F`, the EC50 in assay [4], in assay [6] and in [7] was > 79.4 µM (not active) throughout.

On to `Cc1ccc(NC(=O)c2cn(-c3cccc(C)n3)cn2)cc1`, for which the EC50 in [1] was > 120 µM (not active); in assay [2] it was 0.157 µM (active); in assay [3], 0.269 µM (active).

For the origin of these results see ChEMBL document CHEMBL1201862, “PubChem BioAssay data set” (2004).
